Data on one compound can be found in patent US12331042B2, “Compounds suitable for the treatment and prophylaxis of muscle wasting and other conditions” (priority 2019, dated 2025).

Molecules are shown by their SMILES. “Also recorded” adds a separate entry of the source.

Experiment [1] deals with citrate synthase, succinate dehydrogenase, mitochondrial complex I, cytoplasmic enzymes. In words: Enzyme activity measurements in diaphragm tissue, CHF mice. It counts as in vivo. Particulars: CHF+compound. Here is the method: Diaphragmatic tissue was homogenized in relaxing buffer, and aliquots were used for enzyme activity measurements. Enzyme activities for lactate dehydrogenase (EC 1.1.1.27), pyruvate kinase (EC 2.7.1.40), succinate dehydrogenase (SDH, EC 1.3.5.1), citrate synthase (CS, EC 2.3.3.1), β-hydroxyacyl-COA dehydrogenase (EC 1.1.1.35), and mitochondrial complex I were measured spectrophotometrically as previously described in detail (Mukherjee et al., J Biol Chem, 1976, 251, 2155-2160; Vanderlinde et al., Ann Clin Lab Sci, 1985, 15, 13-31; Dzeja et al., Mol Cell Biochem, 1999, 201, 33-40; Takashi et al., Biochim Biohphys Acta, 1979, 574, 258-267; Schwarzer et al., J Physiol, 2014, 592, 3767-3782). Enzyme activity data are presented as the fold change relative to sham.

In experiment [2] the test system is C57/BL6 mice with LAD ligation (CHF). Description: Myocardial infarction LAD mouse model (CHF, HFrEF). It counts as in vivo. The following applies: 0.1% compound in chow. Here is the method:
A myocardial infarction mouse model suffering from a heart failure with reduced ejection fraction (HFrEF) was generated by ligating the left anterior […] coronary artery (LAD) as described below to induce an acute myocardial infarction (MI) followed by the development of a chronic (systolic) heart failure (CHF).
A small animal surgery was carried out on C57/BL6 mice at 12 weeks of age in the Leipzig Heart Center following established and well known procedures in the field (see for example Bowen et al., J Appl Physiol, 2015, 118, 11-19; Mangner et al., J Cachexia Sarcopenia Muscle, 2015, 6, 381-390). Briefly, mice from the LAD group were anesthetized by i.p. injection of MMF; Medetomidin (0.5 mg/kg body weight), Midazolam (5.0 mg/kg body weight), Fentanyl (0.05 mg/kg body weight). Unconscious mice were fixed on an operation table. Ventral parts of the thorax were shaved, washed and sterilized. Unconscious mice were then intubated and ventilated with normal room air, using an animal respirator (TSE GmbH, Siemensstr. 21, 61352 Bad Homburg; product: http://tinateb.com/wp-content/uploads/2016/06/TSE_Respirator-Compact_20080724_HR.pdf). For LAD operation, the thorax was opened about 1 cm above the Processus xiphoideus and about 1 cm left parasternally by dissecting the skin here. The below located M. pectoralis was moved to the sides without further injury to access the thorax wall. The intercostal muscles between two ribs were moved to the side without breaking the ribs. The thereby created intrathoracic access was widened by a surgical spreader inserted above the pericardium. The pericardium was opened surgically stump by using two anatomical forceps. The thymus, if present in the surgical field, was pushed to the side with a surgical swab to gain access to the aortic root. The heart was carefully moved out of the pericardium using a hook, and the left atrium was put to the side with a surgical swab. The LAD was then ligated with a 5.0 Prolene suture (Ethicon, see http://www.ethicon.com/healthcare-professionals/products/wound-closure/non-absorbable-sutures/prolene-polypropylene). The ligation was made close to the aortic root, and the suture was tightened until paleness of the coronary artery anterior wall was noted. After ligation, the thorax wall and then the skin were closed by a single button seam using a 4.0 Prolene suture (company: Ethicon).
As a control, sham operations were performed. For the sham control group, the procedure followed was exactly the same as described above, except that the 5.0 prolene suture was only loosely out around the LAD without tightening.
The operation is ended by extubation, and antagonizing the anesthesia by i.p. injection of Atipamezol (2.5 mg/kg body weight) and Flumazenil (0.5 mg/kg body weight). Mice were put onto a warming mate until waking up, and then were transferred back to animal cages. The time for the whole procedure above by expert staff was around 30 min.
One week after LAD ligation, echocardiography was performed in M-mode to confirm MI, i.e. the left ventricular end-diastolic (LVEDD) and systolic (LVESD) diameters were assessed to allow calculation of left ventricular (LV) fractional shortening (LVFS=[LVEDD_LVESDLVEDD]×100). Only mice with a large infarct (left ventricular ejection fraction (LVEF)<20%) were subsequently randomized into two groups, i.e. one group receiving normal chow (CHF, n=11) and a second group receiving chow supplemented with compound (0.1% of compound MyoMed-946, CHF+MyoMed-946, n=12). Sham operated animals received only normal chow (n=15). Nine weeks later, echocardiography was performed again.
The animals were sacrificed to collect tissues, in particular diaphragm tissue, for functional and molecular characterization. All experiments and procedures were approved by the local Animal Research Council, University of Leipzig, and the Landesbehörde Sachsen (TVV 36/15).

For a further experiment, the target named is MuRF1 E3 ligase activity (Homo sapiens, UniProt Q969Q1). Description: Inhibition of MuRF1 E3 ligase activity (ubiquitination, Western blot). Type of experiment: biochemical. Particulars: 20-100 μmol/L compound, 1 h at 37° C., based on ubiquitination patterns. Here is the method: Compounds were then assessed for effects on MuRF1 E3 ligase activity directed to titin or to MuRF1 itself (self-ubiquitination) by mixing 75 nmol/L UBE1 (Boston Biochem), 1 μmol/L UbcH5c (Boston Biochem), 100 μmol/L Ubiquitin, 4 mmol/L ATP, 100 nmol/L Titin A168-170 with 20-100 μmol/L of respective compounds. Reactions were started by addition of 220 nmol/L MuRF1, followed by 1 h at 37° C., SDS PAGE and Western blot analysis with MuRF1 and titin specific antibodies. All reactions also included 5% DMSO.
Sequence of MuRF1 E3 ligase activity (Q969Q1 whole entry): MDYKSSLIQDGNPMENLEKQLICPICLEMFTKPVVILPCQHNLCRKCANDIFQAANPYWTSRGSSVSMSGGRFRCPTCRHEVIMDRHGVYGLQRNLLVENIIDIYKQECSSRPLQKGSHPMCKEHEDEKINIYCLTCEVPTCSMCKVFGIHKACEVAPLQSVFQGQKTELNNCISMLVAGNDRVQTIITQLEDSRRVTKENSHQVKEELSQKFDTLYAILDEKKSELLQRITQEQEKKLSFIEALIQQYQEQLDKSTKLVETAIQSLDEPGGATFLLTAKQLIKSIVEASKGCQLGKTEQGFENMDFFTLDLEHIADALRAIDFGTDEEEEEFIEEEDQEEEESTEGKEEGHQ

The test system of experiment [3] is Mrps5 (mitochondrial ribosomal protein 5). Description: Proteomic analysis of diaphragm tissue, CHF mice. Type of experiment: in vivo, Mus musculus. Particulars: CHF mice with vs without compound feeding, P=0.02. As for the experimental part: To analyze the molecular mechanisms underlying the observed physiological changes and benefits of MyoMed-946-treated mice suffering from CHF, comparative quantitative proteomic analysis as well as Western blot analysis of diaphragm tissue from sham, CHF, and CHF+MyoMed-946-treated mice were performed.
Mass spectrometry-based proteomic analysis was performed at the DZHK Core Facility, Bad Nauheim, Germany. Obtained MS raw data were processed by MaxQuant (1.6.0.1) using the Andromeda search engine and the Uniprot database for Mus musculus (as of 20 Apr. 2017). At a false discovery rate of 1% (both peptide and protein levels), >2600 protein groups were identified. The reductive dimethylation protocol employed (see Boersema et al., Nat Protoc, 2009, 4, 484-494) yielded pairwise relative comparative quantitation (ratios) between proteins from CHF+MyoMed-946, CHF, and sham conditions, which were statistically queried for significant differences using standard statistical tests. Several proteins were identified to be statistically different (e.g. TNNT3, Timm9, Ccdc5, Adi1, Ptges3, and Ndufa3).

[4] abbreviates: after 10 weeks of intervention, n = 12.
Where [5] appears, read: after 10 weeks, echocardiography.

In the case of `Cc1cc(=O)oc2cc(OCc3ccc(C(=O)OCC(=O)NC(=O)NCc4ccco4)cc3)ccc12` [MyoMed-946, [2-(2-furylmethylcarbamoylamino)-2-oxo-ethyl] 4-[(4-methyl-2-oxo-chromen-7-yl)oxymethyl]benzoate], the “citrate synthase enzyme activity” value in experiment [1] (reduced by 21% in CHF vs sham) was “attenuated; also recorded: partially improved”. For the same compound, the “mitochondrial complex I enzyme activity” value in experiment [1] (reduced by 27% in CHF vs sham) is listed as “attenuated; also recorded: partially improved”. Further, the “succinate dehydrogenase enzyme activity” value in experiment [1] (reduced by 28% in CHF vs sham) is “attenuated; also recorded: partially improved”. This compound also had an LV infarct size in experiment [2] (after 10 weeks of intervention, histology) of 27.1 ± 2.9%. In experiment [2] (setting [4]), the Heart-to-body weight came out at 7.52 ± 0.57 mg/g and the “Lung weight (wet/dry)” value came out at 4.47 ± 0.10. Besides, in experiment [2] (setting [5]), the LVEDD amounted to 5.9 ± 0.2 mm, the LVEF turned out to be 21.1 ± 2.5 %, the LVESD turned out to be 5.3 ± 0.2 mm and the LVFS is 9.9 ± 1.2 %. The “inhibition of MuRF1 E3 ligase activity” value at MuRF1 E3 ligase activity is “significantly inhibit MuRF1 E3 ligase activity”. Further, the “Mrps5 protein level (proteomics)” value in experiment [3] is “significantly up-regulated”.
